Test results as given in patent US10722514B2 (FLX Bio, Inc., priority 2017, dated 2020).
Counter-ions that a name gives are not always drawn. Like-named read-outs stand apart in the source and are kept apart here.

Molecular target: T1, recombinant full-length USP7 (Homo sapiens, UniProt Q93009)
T1 construct: A 25 μl reaction volume containing recombinant full-length USP7 (62 pM)
Assay: USP7-mediated ubiquitin-rhodamine cleavage assay
Assay type: biochemical
Settings: recombinant full-length USP7 62 pM, ubiquitin-rhodamine 100 nM, 1 hour reaction at room temperature
Summary of the method: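 Rhodamine fluorescence read-out after acetic acid stop; IC50 by 4-parameter nonlinear regression. Enzyme at 62 pM, substrate ubiquitin-rhodamine 100 nM final, 1 h at room temperature in the dark, after 30 min compound preincubation. Buffer: HEPES pH 7.3, NaCl, TCEP, BSA; 1% DMSO.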

[1] = 30-minute incubation with compound, read-out: Potency: USP7 IC50
[2] = 30-minute pre-incubation, read-out: Potency (USP7 IC50)

T1 sequence (Q93009 whole entry): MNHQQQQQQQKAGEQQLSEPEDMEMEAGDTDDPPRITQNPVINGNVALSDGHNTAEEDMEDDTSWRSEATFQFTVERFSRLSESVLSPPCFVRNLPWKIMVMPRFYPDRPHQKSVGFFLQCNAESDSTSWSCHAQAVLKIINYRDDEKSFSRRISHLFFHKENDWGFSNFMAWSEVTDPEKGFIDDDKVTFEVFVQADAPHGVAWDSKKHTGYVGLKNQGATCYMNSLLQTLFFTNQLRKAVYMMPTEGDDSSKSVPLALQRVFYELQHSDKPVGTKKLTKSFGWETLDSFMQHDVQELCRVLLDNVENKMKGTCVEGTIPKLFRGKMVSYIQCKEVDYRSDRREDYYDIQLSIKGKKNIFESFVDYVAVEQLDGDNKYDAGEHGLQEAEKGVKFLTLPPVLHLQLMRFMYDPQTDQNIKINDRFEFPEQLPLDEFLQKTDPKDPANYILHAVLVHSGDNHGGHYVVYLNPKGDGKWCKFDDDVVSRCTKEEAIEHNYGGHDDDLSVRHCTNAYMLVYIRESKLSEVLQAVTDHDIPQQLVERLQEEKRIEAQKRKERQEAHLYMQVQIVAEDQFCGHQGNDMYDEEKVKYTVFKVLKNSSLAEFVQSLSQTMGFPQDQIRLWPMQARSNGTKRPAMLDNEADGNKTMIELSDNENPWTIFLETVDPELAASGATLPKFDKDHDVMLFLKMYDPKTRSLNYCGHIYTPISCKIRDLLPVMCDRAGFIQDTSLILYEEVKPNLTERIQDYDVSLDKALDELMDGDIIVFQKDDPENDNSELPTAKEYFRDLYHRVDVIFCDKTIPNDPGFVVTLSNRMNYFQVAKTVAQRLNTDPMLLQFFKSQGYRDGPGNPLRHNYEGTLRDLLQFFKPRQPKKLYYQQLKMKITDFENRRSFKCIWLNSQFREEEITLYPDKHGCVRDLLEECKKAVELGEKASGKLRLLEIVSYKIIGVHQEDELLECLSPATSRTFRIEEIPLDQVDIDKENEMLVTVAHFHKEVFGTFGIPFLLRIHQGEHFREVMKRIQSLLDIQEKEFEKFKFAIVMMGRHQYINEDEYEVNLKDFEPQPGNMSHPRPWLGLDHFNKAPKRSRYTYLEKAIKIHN

IC50 [1] [µM]	IC50 [2] [µM]	SMILES
< 1	–	Cc1cc(C(F)(F)F)cc(-c2ccnc3cc(CN4C(=O)CCC4=O)sc23)c1O[C@@H]1CNC[C@@H]1F [Example 63, 1-((7-(2-(((3R,4S)-4-Fluoropyrrolidin-3-yl)oxy)-3-methyl-5-(trifluoromethyl)phenyl)thieno[3,2-b]pyridin-2-yl)methyl)pyrrolidine-2,5-dione]
1 to 10	–	CCC(O)c1cc2nccc(-c3cc(Cl)cc(C)c3OC3CCCCNC3)c2s1 (centres unmarked) [Example 265, 1-(7-(2-(Azepan-3-yloxy)-5-chloro-3-methylphenyl)thieno[3,2-b]pyridin-2-yl)propan-1-ol]
–	< 1	Cc1cc(Cl)cc(-c2ccnc3cc(CN4C(=O)C5C(C4=O)C5(C)C)sc23)c1O[C@H]1CCCNC1 (stereo partly drawn) [Example 436, 3-[[7-[5-chloro-3-methyl-2-[[(3S)-3-piperidyl]oxy]phenyl]thieno[3,2-b]pyridin-2-yl]methyl]-6,6-dimethyl-3-azabicyclo[3.1.0]hexane-2,4-dione dihydrochloride]
–	< 1	Cc1cc(Cl)cc(-c2ccnc3cc(Cn4c(=O)ccn(C)c4=O)sc23)c1OC1CC2CC1N(CCO)C2 (centres unmarked) [Example 461, 3-[[7-[5-chloro-2-[[3-(2-hydroxyethyl)-3-azabicyclo[2.2.1]heptan-5-yl]oxy]-3-methyl-phenyl]thieno[3,2-b]pyridin-2-yl]methyl]-1-methyl-pyrimidine-2,4-dione]
–	< 1	Cc1cc(Cl)cc(-c2ccnc3cc(Cn4c(=O)[nH]cc(C)c4=O)sc23)c1O[C@H]1CCCNC1 [Example 479, 3-[[7-[5-chloro-3-methyl-2-[[(3S)-3-piperidyl]oxy]phenyl]thieno[3,2-b]pyridin-2-yl]methyl]-5-methyl-1H-pyrimidine-2,4-dione]
–	< 1	Cc1cc(Cl)cc(-c2ccnc3cc(Cn4c(=O)c(C)cn(C)c4=O)sc23)c1O[C@H]1CCCNC1 [Example 478, 3-[[7-[5-chloro-3-methyl-2-[[(3S)-3-piperidyl]oxy]phenyl]thieno[3,2-b]pyridin-2-yl]methyl]-1,5-dimethyl-pyrimidine-2,4-dione; 2,2,2-trifluoroacetic acid]
< 1	–	Cc1cc(Cl)cc(-c2ccnc3cc(CN4C(=O)C5C(C4=O)C5(C)C)sc23)c1O[C@@H]1CCNC[C@@H]1F (stereo partly drawn) [Example 382, 3-[[7-[5-chloro-2-[[(3S,4R)-3-fluoro-4-piperidyl]oxy]-3-methyl-phenyl]thieno[3,2-b]pyridin-2-yl]methyl]-6,6-dimethyl-3-azabicyclo[3.1.0]hexane-2,4-dione; 2,2,2-trifluoroacetic acid]
< 1	–	Cc1cc(Cl)cc(-c2ccnc3cc(CN4C(=O)C5CC5C4=O)sc23)c1OC1CCNC1C (centres unmarked) [Example 301, 3-[[7-[5-chloro-3-methyl-2-(2-methylpyrrolidin-3-yl)oxy-phenyl]thieno[3,2-b]pyridin-2-yl]methyl]-3-azabicyclo[3.1.0]hexane-2,4-dione; 2,2,2-trifluoroacetic acid]
–	< 1	Cc1cc(Cl)cc(-c2ccnc3cc(Cn4c(=O)ccn(C(C)C)c4=O)sc23)c1O[C@@H]1CNC[C@@H]1F [Example 451, 3-[[7-[5-chloro-2-[(3R,4S)-4-fluoropyrrolidin-3-yl]oxy-3-methyl-phenyl]thieno[3,2-b]pyridin-2-yl]methyl]-1-isopropyl-pyrimidine-2,4-dione]
–	< 1	Cc1cc(Cl)cc(-c2ccnc3cc(Cn4c(=O)ccn(CC(F)(F)F)c4=O)sc23)c1O[C@@H]1CCCN[C@@H]1C [Example 621, 3-[[7-[5-chloro-3-methyl-2-[[(2R,3R)-2-methyl-3-piperidyl]oxy]phenyl]thieno[3,2-b]pyridin-2-yl]methyl]-1-(2,2,2-trifluoroethyl)pyrimidine-2,4-dione; 2,2,2-trifluoroacetic acid]

SMILES	IC50 [1] [µM]	IC50 [2] [µM]
Cc1cc(Cl)cc(-c2ccnc3cc(Cn4c(=O)ccn(CC(F)(F)F)c4=O)sc23)c1O[C@H]1CC[C@](C)(N)C1 [Example 597, 3-[[7-[2-[(1S,3S)-3-amino-3-methyl-cyclopentoxy]-5-chloro-3-methyl-phenyl]thieno[3,2-b]pyridin-2-yl]methyl]-1-(2,2,2-trifluoroethyl)pyrimidine-2,4-dione; 2,2,2-trifluoroacetic acid]	–	< 1
